Measurements from patent US12606566B2, “Substituted cyclopenta[4,5]pyrrolo[1,2-a]pyrazines as bruton's tyrosine kinase inhibitors” (Shanghai Synergy Pharmaceutical Sciences Co., Ltd., priority 2020, dated 2026).

Legend:
[1] = molecular target: BTK kinase (Homo sapiens, UniProt Q06187); experiment: BTK kinase inhibitory activity, mobility shift method; assay type: biochemical; settings: compound co-incubated with the enzyme for 30 minutes
Experimental: The BTK kinase inhibitory activity of the compound was determined using a mobility shift method with the reaction system (kinase solution, ATP, kinase substrate2). The compound was co-incubated with the enzyme for 30 minutes, and then the conversion rate was read using the Caliper EZ reader. The compound inhibition rate was determined using the calculation formula and the data was fitted using Graphpad to derive the IC50 value for the compounds of this application.

[2] = system: tumour cells (A20 5E6 cells); experiment: Inhibitory effect on tumour cell proliferation (CCK8); assay type: cell-based; settings: CCK8 absorbance, read-out: Inhibitory effect of the compound on cell proliferation IC50
Experimental: This experiment was to determine the effect of the compound on cell proliferation.
To determine the inhibitory effect of the compound on the proliferation of tumour cells, tumour cells (A20 5E6 cells) were cultured to a certain amount and seeded into 96-well plates. […] The absorbance value was measured after the addition of CCK8 and 2 h incubation to determine the inhibitory effect of the compound on cell proliferation. The IC50 value of the compound was obtained by data fitted with Graphpad.

Sequence of BTK kinase (Q06187 whole entry): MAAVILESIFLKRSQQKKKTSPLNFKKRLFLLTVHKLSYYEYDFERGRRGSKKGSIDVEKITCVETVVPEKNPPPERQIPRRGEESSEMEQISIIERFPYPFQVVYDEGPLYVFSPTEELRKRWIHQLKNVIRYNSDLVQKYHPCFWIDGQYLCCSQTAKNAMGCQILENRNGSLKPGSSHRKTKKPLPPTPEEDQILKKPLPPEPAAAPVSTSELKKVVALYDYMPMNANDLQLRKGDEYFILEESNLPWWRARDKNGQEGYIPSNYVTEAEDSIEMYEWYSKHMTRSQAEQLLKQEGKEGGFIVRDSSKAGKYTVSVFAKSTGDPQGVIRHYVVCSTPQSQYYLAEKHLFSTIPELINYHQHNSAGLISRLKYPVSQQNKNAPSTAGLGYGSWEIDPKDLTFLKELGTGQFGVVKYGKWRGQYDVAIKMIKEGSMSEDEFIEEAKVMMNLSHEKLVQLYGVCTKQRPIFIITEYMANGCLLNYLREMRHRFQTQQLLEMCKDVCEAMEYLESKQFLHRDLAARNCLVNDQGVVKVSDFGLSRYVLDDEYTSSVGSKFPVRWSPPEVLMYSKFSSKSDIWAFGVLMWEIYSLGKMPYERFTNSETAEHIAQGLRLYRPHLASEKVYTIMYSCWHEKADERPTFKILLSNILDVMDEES

Row | SMILES | IC50 [1] [nM] | IC50 [2] [nM]
1 | Cn1cc(-c2ccnc(N3CCn4c5c(c(F)c4C3=O)CC(C)(C)C5)c2CO)cc(Nc2ccc(N3CCC4(CC3)CC(O)C4)cn2)c1=O [Example H13, 9-fluoro-2-(5-((5-(2-hydroxy-7-azaspiro[3.5]nonan-7-yl)pyridin-2-yl)amino)-3′-(hydroxymethyl)-1-methyl-6-oxo-1,6-dihydro-[3,4′-bipyridin]-2′-yl)-7,7-dimethyl-3,4,7,8-tetrahydro-2H-cyclopenta[4,5]pyrrolo[1,2-a]pyrazin-1(6H)-one] | 0.18 | 19
2 | Cn1cc(-c2ccnc(N3CCn4c5c(c(F)c4C3=O)CC(C)(C)C5)c2CO)cc(Nc2ccc(N3CCN(C4COC4)CC3)nc2)c1=O [Example H16, 9-fluoro-2-(3′-(hydroxymethyl)-1-methyl-5-((6-(4-(oxetan-3-yl)piperazin-1-yl)pyridin-3-yl)amino)-6-oxo-1,6-dihydro-[3,4′-bipyridin]-2′-yl)-7,7-dimethyl-3,4,7,8-tetrahydro-2H-cyclopenta[4,5]pyrrolo[1,2-a]pyrazin-1(6H)-one] | 0.17 | 47
3 | Cc1c2c(n3c1C(=O)N(c1nccc(-c4cc(Nc5ccc(N6CCN(C7COC7)C[C@@H]6C)cn5)c(=O)n(C)c4)c1CO)CC3)CC(C)(C)C2 [Example H03, (S)-2-(3′-(hydroxymethyl)-1-methyl-5-((5-(2-methyl-4-(oxetan-3-yl)piperazin-1-yl)pyridin-2-yl)amino)-6-oxo-1,6-dihydro-[3,4′-bipyridin]-2′-yl)-7,7,9-trimethyl-3,4,7,8-tetrahydro-2H-cyclopenta[4,5]pyrrolo[1,2-a]pyrazin-1(6H)-one] | 0.14 | 61
4 | C[C@H]1CN(C2COC2)CCN1c1ccc(Nc2cc(-c3ccnc(N4CCn5c6c(c(F)c5C4=O)CC(C)(C)C6)c3CO)cn(C)c2=O)nc1 [Example H01, (S)-9-fluoro-2-(3′-(hydroxymethyl)-1-methyl-5-((5-(2-methyl-4-(oxetan-3-yl)piperazin-1-yl)pyridin-2-yl)amino)-6-oxo-1,6-dihydro-[3,4′-bipyridin]-2′-yl)-7,7-dimethyl-3,4,7,8-tetrahydro-2H-cyclopenta[4,5]pyrrolo[1,2-a]pyrazin-1(6H)-one] | 0.23 | 24
5 | Cn1cc(-c2ccnc(N3CCn4c5c(c(F)c4C3=O)CC(C)(C)C5)c2CO)cc(Nc2ccc(N3CCN(C4COC4)CC3)cn2)c1=O [Example H10, 9-fluoro-2-(3′-(hydroxymethyl)-1-methyl-5-((5-(4-(oxetan-3-yl)piperazin-1-yl)pyridin-2-yl)amino)-6-oxo-1,6-dihydro-[3,4′-bipyridin]-2′-yl)-7,7-dimethyl-3,4,7,8-tetrahydro-2H-cyclopenta[4,5]pyrrolo[1,2-a]pyrazin-1(6H)-one] | 0.21 | 21
6 | CN1CC2(CCN(c3ccc(Nc4cc(-c5ccnc(N6CCn7c8c(c(F)c7C6=O)CC(C)(C)C8)c5CO)cn(C)c4=O)nc3)CC2)C1 [Example H12, 9-fluoro-2-(3′-(hydroxymethyl)-1-methyl-5-((5-(2-methyl-2,7-diazaspiro[3.5]nonan-7-yl)pyridin-2-yl)amino)-6-oxo-1,6-dihydro-[3,4′-bipyridin]-2′-yl)-7,7-dimethyl-3,4,7,8-tetrahydro-2H-cyclopenta[4,5]pyrrolo[1,2-a]pyrazin-1(6H)-one] | 0.49 | 13
